# Data reported in patent US20240352010A1, “SUBSTITUTED 1,2,4-THIADIAZOLYL NICOTINAMIDES, SALTS OR N-OXIDES THEREOF AND THEIR USE AS HERBICIDALLY ACTIVE SUBSTANCES” (BayerAktiengesellschaft, priority 2021, published 2024).
# Columns and labels:
# Assay type in all cases: in vivo
# [1] = system: Matricaria inodora (MATIN); test: Herbicidal post-emergence action, MATIN
# Source text: (§1) Seeds of mono- and dicotyledonous weed plants were sown in plastic pots (double sowings with one species of mono- and one species of dicotyledonous weed plants per pot), in sandy loam, covered with soil and grown under controlled growth conditions. 2 to 3 weeks after sowing, the test plants were sprayed in the single-leaf stage. The compounds according to the invention, formulated in the form of wettable powders (WP) or as emulsifiable concentrates (EC), were sprayed onto the green plant parts as an aqueous suspension or as an emulsion, with the addition of 0.5% of an additive, at an application rate of 600 litres of water per hectare (converted). The test plants were placed in the greenhouse for ca. 3 weeks under optimum growth conditions, and then the effect of the preparations is assessed visually in comparison with untreated controls (herbicidal effect in percent (%): 100% effect=plants have died, 0% effect=as control plants). […]
# [2] = system: Amaranthus retroflexus (AMARE); test: Herbicidal pre-emergence action, AMARE; conditions: 1280 g/ha, visual grading after ca. 3 weeks vs untreated controls (Table A11)
# Source text: (§2) Seeds of mono- and dicotyledonous weed plants were sown in plastic pots (double sowings with one species of mono- and one species of dicotyledonous weed plants per pot), in sandy loam, and covered with soil. The compounds according to the invention, formulated in the form of wettable powders (WP) or as emulsifiable concentrates (EC), were applied to the surface of the covering soil as an aqueous suspension or as an emulsion, with the addition of 0.5% of an additive, at an application rate of 600 litres of water per hectare (converted). Following treatment, the pots were placed in a greenhouse and kept under optimum growth conditions for the test plants. The visual grading of the damage to the test plants is carried out after ca. 3 weeks in comparison to untreated controls (herbicidal effect in percent (%): 100% effect=plants have died, 0% effect=as control plants). Seeds of mono- and dicotyledonous weed plants were sown in plastic pots (double sowings with one species of mono- and one species of dicotyledonous weed plants per pot), in sandy loam, and covered with soil. The compounds according to the invention, formulated in the form of wettable powders (WP) or as emulsifiable concentrates (EC), were applied to the surface of the covering soil as an aqueous suspension or as an emulsion, with the addition of 0.5% of an additive, at an application rate of 600 litres of water per hectare (converted). Following treatment, the pots were placed in a greenhouse and kept under optimum growth conditions for the test plants. The visual grading of the damage to the test plants is carried out after ca. 3 weeks in comparison to untreated controls (herbicidal effect in percent (%): 100% effect=plants have died, 0% effect=as control plants).
# [3] = system: Matricaria inodora (MATIN); test: Herbicidal pre-emergence action, MATIN
# Source text: as §2
# [4] = system: Veronica persica (VERPE); test: Herbicidal post-emergence action, VERPE
# Source text: as §1
# [5] = system: Kochia scoparia (KCHSC); test: Herbicidal post-emergence action, KCHSC
# Source text: as §1
# [6] = system: Setaria viridis (SETVI); test: Herbicidal post-emergence action, SETVI; conditions: 1280 g/ha, assessed visually after ca. 3 weeks vs untreated controls (Table B7)
# Source text: as §1
# [7] = system: Amaranthus retroflexus (AMARE); test: Herbicidal post-emergence action, AMARE
# Source text: as §1
# [8] = system: Setaria viridis (SETVI); test: Herbicidal pre-emergence action, SETVI; conditions: 1280 g/ha, visual grading after ca. 3 weeks vs untreated controls (Table A8)
# Source text: as §2
# [9] = system: Stellaria media (STEME); test: Herbicidal post-emergence action, STEME
# Source text: as §1
# [10] = system: Stellaria media (STEME); test: Herbicidal pre-emergence action, STEME
# Source text: as §2
# [11] = system: Abutilon theophrasti (ABUTH); test: Herbicidal post-emergence action, ABUTH; conditions: 1280 g/ha, assessed visually after ca. 3 weeks vs untreated controls (Table B1)
# Source text: (§3) Seeds of mono- and dicotyledonous weed plants were sown in plastic pots (double sowings with one species of mono- and one species of dicotyledonous weed plants per pot), in sandy loam, covered with soil and grown under controlled growth conditions. 2 to 3 weeks after sowing, the test plants were sprayed in the single-leaf stage. The compounds according to the invention, formulated in the form of wettable powders (WP) or as emulsifiable concentrates (EC), were sprayed onto the green plant parts as an aqueous suspension or as an emulsion, with the addition of 0.5% of an additive, at an application rate of 600 litres of water per hectare (converted). The test plants were placed in the greenhouse for ca. 3 weeks under optimum growth conditions, and then the effect of the preparations is assessed visually in comparison with untreated controls (herbicidal effect in percent (%): 100% effect=plants have died, 0% effect=as control plants).
# [12] = system: Poa annua (POAAN); test: Herbicidal pre-emergence action, POAAN
# Source text: as §2
# [13] = system: Kochia scoparia (KCHSC); test: Herbicidal pre-emergence action, KCHSC; conditions: 1280 g/ha, visual grading after ca. 3 weeks vs untreated controls (Table A4)
# Source text: as §2
# [14] = system: Poa annua (POAAN); test: Herbicidal post-emergence action, POAAN
# Source text: as §1
# [15] = system: Digitaria sanguinalis (DIGSA); test: Herbicidal post-emergence action, DIGSA; conditions: 1280 g/ha, assessed visually after ca. 3 weeks vs untreated controls (Table B12)
# Source text: as §3
# [16] = system: Lolium rigidum (LOLRI); test: Herbicidal pre-emergence action, LOLRI
# Source text: as §2
# [17] = system: Echinochloa crus-galli (ECHCG); test: Herbicidal post-emergence action, ECHCG; conditions: 1280 g/ha, assessed visually after ca. 3 weeks vs untreated controls (Table B3)
# Source text: as §1
# [18] = 1280 g/ha, assessed visually after ca. 3 weeks vs untreated controls (Table B6)
# [19] = 1280 g/ha, visual grading after ca. 3 weeks vs untreated controls (Table A6)
# [20] = 1280 g/ha, assessed visually after ca. 3 weeks vs untreated controls (Table B10)
# [21] = 1280 g/ha, assessed visually after ca. 3 weeks vs untreated controls (Table B4)
# [22] = 320 g/ha, assessed visually after ca. 3 weeks vs untreated controls (Table D6)
# [23] = 1280 g/ha, assessed visually after ca. 3 weeks vs untreated controls (Table B11)
# [24] = 320 g/ha, assessed visually after ca. 3 weeks vs untreated controls (Table D4)
# [25] = 1280 g/ha, assessed visually after ca. 3 weeks vs untreated controls (Table B9)
# [26] = 1280 g/ha, visual grading after ca. 3 weeks vs untreated controls (Table A9)
# [27] = 320 g/ha, visual grading after ca. 3 weeks vs untreated controls (Table C3)
# [28] = 1280 g/ha, assessed visually after ca. 3 weeks vs untreated controls (Table B8)
# [29] = 1280 g/ha, visual grading after ca. 3 weeks vs untreated controls (Table A5)
Structure (SMILES),"herbicidal effect in percent, MATIN [1, 18] [%]","herbicidal effect in percent, AMARE [2] [%]","herbicidal effect in percent, MATIN [3, 19] [%]","herbicidal effect in percent, VERPE [4, 20] [%]","herbicidal effect in percent, KCHSC [5, 21] [%]","herbicidal effect in percent, AMARE [7, 22] [%]","herbicidal effect in percent, AMARE [7, 23] [%]","herbicidal effect in percent, SETVI [8] [%]","herbicidal effect in percent, STEME [9, 24] [%]","herbicidal effect in percent, STEME [9, 25] [%]","herbicidal effect in percent, STEME [10, 26] [%]","herbicidal effect in percent, MATIN [3, 27] [%]","herbicidal effect in percent, KCHSC [13] [%]","herbicidal effect in percent, POAAN [14, 28] [%]","herbicidal effect in percent, LOLRI [16, 29] [%]",further results
CC1CC1c1ccnc(Cl)c1C(=O)Nc1ncns1 (stereo not shown) [Example I-004],100,100,90,90,90,100,100,90,90,100,90,–,–,–,–,"herbicidal effect in percent, SETVI [6]: 100%"
O=C(Nc1ncns1)c1c(C2CC2)ccnc1C(F)(F)F [Example I-006],–,90,100,90,100,90,100,90,–,100,100,90,90,90,90,"herbicidal effect in percent, ABUTH [11]: 90%; herbicidal effect in percent, POAAN ([12]; 320 g/ha, visual grading after ca. 3 weeks vs untreated controls (Table C4)): 90%; herbicidal effect in percent, POAAN ([12]; 1280 g/ha, visual grading after ca. 3 weeks vs untreated controls (Table A7)): 90%; herbicidal effect in percent, KCHSC ([5]; dosage printed 1280 g/ha in Table D1, assessed visually after ca. 3 weeks vs untreated controls): 90%; herbicidal effect in percent, DIGSA [15]: 90%; herbicidal effect in percent, LOLRI ([16]; 320 g/ha, visual grading after ca. 3 weeks vs untreated controls (Table C2)): 90%; herbicidal effect in percent, STEME ([9]; dosage printed 1280 g/ha in Table D4, assessed visually after ca. 3 weeks vs untreated controls): 90%; herbicidal effect in percent, STEME ([10]; 320 g/ha, visual grading after ca. 3 weeks vs untreated controls (Table C6)): 100%"
O=C(Nc1nc(Br)ns1)c1c(C2CC2)ccnc1Cl [Example I-010],90,90,100,90,–,–,90,–,90,90,100,90,90,90,90,"herbicidal effect in percent, MATIN ([1]; 320 g/ha, assessed visually after ca. 3 weeks vs untreated controls (Table D2)): 90%; herbicidal effect in percent, VERPE ([4]; 320 g/ha, assessed visually after ca. 3 weeks vs untreated controls (Table D5)): 90%; herbicidal effect in percent, ECHCG [17]: 90%; herbicidal effect in percent, POAAN ([14]; 320 g/ha, assessed visually after ca. 3 weeks vs untreated controls (Table D3)): 90%"
